{"source": "ChEMBL document CHEMBL1131359", "about": "“Design of new inhibitors for cdc2 kinase based on a multiple pseudosubstrate structure” (Bioorg Med Chem Lett, 1998)", "key": {"[1]": {"molecular_target": "Cyclin-dependent kinase 1/cyclin B (Homo sapiens, UniProt P06493)", "assay": "Inhibitory concentration was determined by measuring phosphorylation of H1 histone using active human Cell division cycle 2-cyclin B complex", "assay_type": "protein-complex assay"}, "[2]": {"molecular_target": "T1, cAMP-dependent protein kinase (PKA) (Homo sapiens) (UniProt P22694+P17612+P22612)", "assay": "Inhibition of protein kinase A at 240 uM", "assay_type": "protein assay"}, "[3]": {"molecular_target": "T2, Cyclin-dependent kinase 1/cyclin B (Homo sapiens) (UniProt P06493+P14635+Q8WWL7+O95067)", "assay": "Inhibition of Cell division cycle 2-cyclin B at 240 uM (Partial inhibition)", "assay_type": "protein-complex assay"}, "[4]": {"molecular_target": "T3, Protein kinase C (PKC) (Homo sapiens) (UniProt O94806+P41743+P17252+P05129+Q05655+P05771+Q05513+Q02156+P24723+Q15139+Q04759)", "assay": "Inhibition of protein kinase C at 24 uM", "assay_type": "protein assay"}, "[5]": {"molecular_target": "T2, Cyclin-dependent kinase 1/cyclin B (Homo sapiens)", "assay": "Inhibition of Cell division cycle 2-cyclin B at 2.4 uM (No inhibition)", "assay_type": "protein-complex assay"}, "[6]": {"molecular_target": "T3, Protein kinase C (PKC) (Homo sapiens)", "assay": "Inhibition of protein kinase C at 2.4 uM", "assay_type": "protein assay"}, "[7]": {"molecular_target": "T3, Protein kinase C (PKC) (Homo sapiens)", "assay": "Inhibition of protein kinase C at 240 uM", "assay_type": "protein assay"}, "[8]": {"assay": "Inhibition of Calcium/calmodulin-dependent protein kinase at 240 uM (No inhibition)"}, "[9]": {"molecular_target": "T1, cAMP-dependent protein kinase (PKA) (Homo sapiens)", "assay": "Inhibition of protein kinase A at 2.4 uM (No inhibition)", "assay_type": "protein assay"}, "[10]": {"assay": "Inhibition of Calcium/calmodulin-dependent protein kinase at 24 uM (No inhibition)"}, "[11]": {"assay": "Inhibition of Calcium/calmodulin-dependent protein kinase at 2.4 uM (No inhibition)"}, "[12]": {"molecular_target": "T1, cAMP-dependent protein kinase (PKA) (Homo sapiens)", "assay": "Inhibition of protein kinase A at 24 uM (No inhibition)", "assay_type": "protein assay"}, "[13]": {"molecular_target": "T2, Cyclin-dependent kinase 1/cyclin B (Homo sapiens)", "assay": "Inhibition of Cell division cycle 2-cyclin B at 24 uM (No inhibition)", "assay_type": "protein-complex assay"}, "[14]": {"molecular_target": "T1, cAMP-dependent protein kinase (PKA) (Homo sapiens)", "assay": "Inhibition of protein kinase A at 240 uM (No inhibition)", "assay_type": "protein assay"}, "[15]": {"molecular_target": "T2, Cyclin-dependent kinase 1/cyclin B (Homo sapiens)", "assay": "Inhibition of Cell division cycle 2-cyclin B at 24 uM (Partial inhibition)", "assay_type": "protein-complex assay"}, "[16]": {"molecular_target": "T1, cAMP-dependent protein kinase (PKA) (Homo sapiens)", "assay": "Inhibition of protein kinase A at 24 uM (partial)", "assay_type": "protein assay"}, "[17]": {"molecular_target": "T2, Cyclin-dependent kinase 1/cyclin B (Homo sapiens)", "conditions": "240 uM"}, "[18]": {"assay": "Inhibition of Calcium/calmodulin-dependent protein kinase at 240 uM (Partial)"}}, "note": "Calls of active or inactive are those of the source. The rule behind the calls is not given here. Residues, ends and D or L forms follow the SMILES beside them. *: point of attachment. X3 = CN(C)CCCn1cc(C2=C(c3cn(CCOCC*)c4ccccc34)C(=O)NC2=O)c2ccccc21; X4 = O=C1NC(=O)C(c2cn(CCOCCOCCOC*)c3ccccc23)=C1c1c[nH]c2ccccc12; X1 = O=C1NC(=O)C(c2cn(CCOCCOCC*)c3ccccc23)=C1c1c[nH]c2ccccc12; X2 = O=C1NC(=O)C(c2cn(CCOCC*)c3ccccc23)=C1c1c[nH]c2ccccc12"}
{"compound": "O=C1NC(=O)C(c2cn(CCOCCOCCOCCO)c3ccccc23)=C1c1c[nH]c2ccccc12", "values": [{"measurement": "IC50", "setting": "[1]", "result": 55, "unit": "µM"}]}
{"compound": "CNC(=O)[C@H](CCCCN)NC(=O)[C@H](CCCCN)NC(=O)[C@@H]1CCCN1C(=O)[C@H](CSCCOCCOCCOCCn1cc(C2=C(c3c[nH]c4ccccc34)C(=O)NC2=O)c2ccccc21)NC(C)=O", "values": [{"measurement": "IC50", "setting": "[1]", "result": 31, "unit": "µM"}]}
{"compound": "CNC(=O)[C@H](CCCCN)NC(=O)[C@H](CCCCN)NC(=O)[C@@H]1CCCN1C(=O)[C@H](CSCCOCCOCCn1cc(C2=C(c3cn(CCCN(C)C)c4ccccc34)C(=O)NC2=O)c2ccccc21)NC(C)=O", "values": [{"measurement": "IC50", "setting": "[1]", "result": "> 1000", "unit": "µM"}]}
{"compound": "O=C1NC(=O)C(c2cn(CCOCCO)c3ccccc23)=C1c1c[nH]c2ccccc12", "values": [{"measurement": "inhibition", "setting": "[2]", "result": "> 75", "unit": "%"}, {"measurement": "inhibition", "setting": "[3]", "result": "Weak activity"}, {"measurement": "inhibition", "setting": "[4]", "result": "> 75", "unit": "%"}, {"measurement": "IC50", "setting": "[1]", "result": 4, "unit": "µM"}, {"measurement": "inhibition", "setting": "[5]", "result": "inactive"}, {"measurement": "inhibition", "setting": "[6]", "result": "> 75", "unit": "%"}, {"measurement": "inhibition", "setting": "[7]", "result": "> 75", "unit": "%"}, {"measurement": "inhibition", "setting": "[8]", "result": "inactive"}, {"measurement": "inhibition", "setting": "[9]", "result": "inactive"}, {"measurement": "inhibition", "setting": "[10]", "result": "inactive"}, {"measurement": "inhibition", "setting": "[11]", "result": "inactive"}, {"measurement": "inhibition", "setting": "[12]", "result": "inactive"}, {"measurement": "inhibition", "setting": "[13]", "result": "inactive"}]}
{"compound": "CN(C)CCCn1cc(C2=C(c3cn(CCOCCOCCO)c4ccccc34)C(=O)NC2=O)c2ccccc21", "values": [{"measurement": "IC50", "setting": "[1]", "result": 35, "unit": "µM"}]}
{"compound": "O=C1NC(=O)C(c2cn(CCOCCOCCO)c3ccccc23)=C1c1c[nH]c2ccccc12", "values": [{"measurement": "IC50", "setting": "[1]", "result": 285, "unit": "µM"}]}
{"compound": "CN(C)CCCn1cc(C2=C(c3cn(CCOCCO)c4ccccc34)C(=O)NC2=O)c2ccccc21", "values": [{"measurement": "IC50", "setting": "[1]", "result": 22, "unit": "µM"}]}
{"compound": "CNC(=O)[C@H](CCCCN)NC(=O)[C@H](CCCCN)NC(=O)[C@@H]1CCCN1C(=O)[C@H](CSCCOCCOCCn1cc(C2=C(c3c[nH]c4ccccc34)C(=O)NC2=O)c2ccccc21)NC(C)=O", "note": "(Ac-C(X1)PKK-NHMe)", "values": [{"measurement": "inhibition", "setting": "[3]", "result": "Weak activity"}, {"measurement": "inhibition", "setting": "[14]", "result": "inactive"}, {"measurement": "inhibition", "setting": "[4]", "result": "> 75", "unit": "%"}, {"measurement": "IC50", "setting": "[1]", "result": 4.5, "unit": "µM"}, {"measurement": "inhibition", "setting": "[5]", "result": "inactive"}, {"measurement": "inhibition", "setting": "[6]", "result": "> 75", "unit": "%"}, {"measurement": "inhibition", "setting": "[7]", "result": "> 75", "unit": "%"}, {"measurement": "inhibition", "setting": "[8]", "result": "inactive"}, {"measurement": "inhibition", "setting": "[9]", "result": "inactive"}, {"measurement": "inhibition", "setting": "[10]", "result": "inactive"}, {"measurement": "inhibition", "setting": "[11]", "result": "inactive"}, {"measurement": "inhibition", "setting": "[12]", "result": "inactive"}, {"measurement": "inhibition", "setting": "[13]", "result": "inactive"}]}
{"compound": "CNC(=O)[C@H](CCCCN)NC(=O)[C@H](CCCCN)NC(=O)[C@@H]1CCCN1C(=O)[C@H](CO)NC(=O)[C@H](CSCCOCCOCCn1cc(C2=C(c3c[nH]c4ccccc34)C(=O)NC2=O)c2ccccc21)NC(C)=O", "note": "(Ac-C(X1)SPKK-NHMe)", "values": [{"measurement": "IC50", "setting": "[1]", "result": 220, "unit": "µM"}]}
{"compound": "CNC(=O)[C@H](CCCCN)NC(=O)[C@H](CCCCN)NC(=O)[C@@H]1CCCN1C(=O)[C@H](CSCCOCCn1cc(C2=C(c3c[nH]c4ccccc34)C(=O)NC2=O)c2ccccc21)NC(C)=O", "note": "(Ac-C(X2)PKK-NHMe)", "values": [{"measurement": "IC50", "setting": "[1]", "result": 98, "unit": "µM"}]}
{"compound": "CNC(=O)[C@H](CCCCN)NC(=O)[C@H](CCCCN)NC(=O)[C@@H]1CCCN1C(=O)[C@H](CSCCOCCn1cc(C2=C(c3cn(CCCN(C)C)c4ccccc34)C(=O)NC2=O)c2ccccc21)NC(C)=O", "note": "(Ac-C(X3)PKK-NHMe)", "values": [{"measurement": "IC50", "setting": "[1]", "result": "> 1000", "unit": "µM"}]}
{"compound": "CNC(=O)[C@H](CCCCN)NC(=O)[C@H](CCCCN)NC(=O)[C@@H]1CCCN1C(=O)[C@H](CO)NC(=O)[C@H](CSCOCCOCCOCCn1cc(C2=C(c3c[nH]c4ccccc34)C(=O)NC2=O)c2ccccc21)NC(C)=O", "note": "(Ac-C(X4)SPKK-NHMe)", "values": [{"measurement": "IC50", "setting": "[1]", "result": 570, "unit": "µM"}]}
{"compound": "CNC(=O)[C@H](CCCCN)NC(=O)[C@H](CCCCN)NC(=O)[C@@H]1CCCN1C(=O)[C@H](CS)NC(C)=O", "note": "(HELM PEPTIDE1{[ac].C.P.K.K.[CN[*:1]]}$$$$V2.0)", "values": [{"measurement": "IC50", "setting": "[1]", "result": "> 1000", "unit": "µM"}]}
{"compound": "CN(C)CCCn1cc(C2=C(c3c[nH]c4ccccc34)C(=O)NC2=O)c2ccccc21", "note": "[GF-109203]", "values": [{"measurement": "inhibition", "setting": "[2]", "result": "> 75", "unit": "%"}, {"measurement": "inhibition", "setting": "[4]", "result": "> 75", "unit": "%"}, {"measurement": "inhibition", "setting": "[15]", "result": "Weak activity"}, {"measurement": "IC50", "setting": "[1]", "result": 19, "unit": "µM"}, {"measurement": "inhibition", "setting": "[5]", "result": "inactive"}, {"measurement": "inhibition", "setting": "[16]", "result": "Weak activity"}, {"measurement": "inhibition", "setting": "[6]", "result": "> 75", "unit": "%"}, {"measurement": "inhibition", "setting": "[7]", "result": "> 75", "unit": "%"}, {"measurement": "inhibition", "setting": "[8]", "result": "inactive"}, {"measurement": "inhibition", "setting": "[9]", "result": "inactive"}, {"measurement": "inhibition", "setting": "[17]", "result": "> 75", "unit": "%"}, {"measurement": "inhibition", "setting": "[10]", "result": "inactive"}, {"measurement": "inhibition", "setting": "[11]", "result": "inactive"}]}
{"compound": "O=C1NC(=O)C(c2c[nH]c3ccccc23)=C1c1c[nH]c2ccccc12", "note": "[RO-316233]", "values": [{"measurement": "inhibition", "setting": "[2]", "result": "> 75", "unit": "%"}, {"measurement": "inhibition", "setting": "[15]", "result": "Weak activity"}, {"measurement": "IC50", "setting": "[1]", "result": 18, "unit": "µM"}, {"measurement": "inhibition", "setting": "[18]", "result": "Weak activity"}, {"measurement": "inhibition", "setting": "[5]", "result": "inactive"}, {"measurement": "inhibition", "setting": "[16]", "result": "Weak activity"}, {"measurement": "inhibition", "setting": "[9]", "result": "inactive"}, {"measurement": "inhibition", "setting": "[17]", "result": "> 75", "unit": "%"}, {"measurement": "inhibition", "setting": "[10]", "result": "inactive"}, {"measurement": "inhibition", "setting": "[11]", "result": "inactive"}]}
